Reference: patent US20230002324A1, “NAPHTHOQUINONE DERIVATIVES FOR TREATMENT OF OXIDATIVE STRESS DISORDERS” (PTC THERAPEUTICS, INC., priority 2019, published 2023)

How the values were obtained:
Format in all cases: cell-based
[1] = system: Q7 cells (ST HDH Q7/7; immortalized mouse striatal cells); assay: Q7 RSL3 challenge cell survival (rescue) assay; settings: 18 h, read-out: Q7 RSL3 Survival EC50
Excerpt: (§1) In neuronal cells excess extracellular glutamate inhibits the cystine/glutamate antiporter leading to intracellular cysteine depletion, GSH depletion, reactive oxygen species (ROS) production and cell death, a phenomenon termed oxidative glutamate toxicity, oxytosis, or ferroptosis. […] Q7 cells (ST HDH Q7/7; immortalized mouse striatal cells) challenged with cystine-free media or the selective, irreversible GPX4 inhibitor, methyl (1S,3R)-2-(2-chloroacetyl)-1-(4-(methoxycarbonyl)phenyl)-2,3,4,9-tetrahydro-1H-pyrido[3,4-b]indole-3-carboxylate (hereafter referred to as RSL3), recapitulate this phenotype, as do normal human fibroblasts (NHF) challenged with RSL3. An initial screen was performed to identify compounds effective in rescuing Q7 and/or NHF cells from death resulting from cystine deprivation or RSL3 challenge. This method is further described in Yonezawa et al., J. Neurochem 67, 566-573 (1996), Li et al., J Neurosci., 23, 5816-5826 (2003), Yang and Stockwell, Chem Biol., 15: 234-45 (2008), and Yang et al., Cell 156, 317-331 (2014). See also Hinman A, Holst C R, Latham J C, et al. Vitamin E hydroquinone is an endogenous regulator of ferroptosis via redox control of 15-lipoxygenase. PLoS One. 2018; 13(8):e0201369. Published 2018 Aug. 15. doi:10.1371/journal.pone.0201369; and Kahn-Kirby A H, Amagata A, Maeder C I, et al. Targeting ferroptosis: A novel therapeutic strategy for the treatment of mitochondrial disease-related epilepsy. PLoS One. 2019; 14(3):e0214250. Published 2019 Mar. 28. doi:10.1371/journal.pone.0214250.
(§2) DMEM (Catalog no. 11995-040), DMEM without Cystine (Catalog no. 21013-024), DMEM without Glucose (Catalog A1443001), PBS (Phosphate buffered saline), Penicillin-streptomycin mix, L-Glutamine, Glucose, Phenol Red, and Pyruvate were purchased from ThermoFisher Scientific (Gibco). Fetal Bovine Serum was obtained from Mediatech, Inc., or Sigma Aldrich. Mouse striatum derived ST HDH Q7/7 (Q7) and normal human skin fibroblast (NHF, product number GM21811) cells were obtained from the Coriell Institute. Methionine and Vitamin K2 were purchased from Sigma Aldrich. RSL3 was synthesized as previously described (see e.g. US Patent Publication US2010/0081654). Cell Titer Glo 2.0 was purchased from Promega. Q7 cell culture medium (Q7 growth medium) was made by combining 50 mL Fetal Bovine Serum, 100 U/mL penicillin, and 100 microgram/mL streptomycin; DMEM was added to make the volume up to 500 mL. Assay medium for the Cystine Deprivation assay was prepared by combining 50 mL Fetal Bovine Serum, 100 U/mL penicillin, 100 microgram/mL streptomycin, 4 mM L-Glutamine, 1 mM Pyruvate and 30 mg/L Methionine; DMEM without Cystine was added to make the volume up to 500 mL. NHF cell culture medium (NHF growth medium) was made by combining 50 mL Fetal Bovine Serum, 100 U/mL penicillin, 100 microgram/mL streptomycin, 2.8 mL 20% Glucose solution (final concentration 6 mM), L-glutamine (final concentration 2 mM), phenol red (final concentration 15 mg/L); DMEM without Glucose was added to make the volume up to 500 mL. Assay medium for the RSL3 challenge assay was identical to Growth medium. While not in use during the course of the experiments, these solutions were stored at 4° C. The cells were grown in 150-cm^2 tissue culture-treated flasks. Every third or fourth day, the cells were sub-cultured by trypsinization and re-seeded at a cell density of 600,000 (Q7) or 300,000 (NHF) cells per flask.
(§3) Q7 or NHF cells were cultured routinely as described herein. For 384-well cell survival assays, cells were seeded in clear bottom, black wall 384-well tissue culture-treated polystyrene plates by re-suspending a cell suspension at a density of 50,000 cells/mL in growth medium, then dispensing 60 microliters of cell suspension per well using either an electronic multichannel pipette or a Multidrop™ Combi Reagent Dispenser (ThermoFisher Scientific), corresponding to 3,000 cells/well. […]

[2] = system: Q7 cells (ST HDH Q7/7; immortalized mouse striatal cells); assay: Q7 Cystine Deprivation cell survival (rescue) assay; settings: Q7 cells, cystine-free medium, 18 h, Cell Titer Glo, 50% relative viability vs Vitamin K2 (1 micromolar), read-out: Q7 Cystine Deprivation Survival EC50
Excerpt: as §1, §2, §3

[3] = system: normal human fibroblasts (NHF, GM21811); assay: NHF GM21811 RSL3 challenge cell survival (rescue) assay; settings: Fibroblast, NHF cells, RSL3 2 micromolar, 48 h, Cell Titer Glo, read-out: NHF GM21811 RSL3 Survival EC50
Excerpt: as §1, §2, §3

[4] = Q7 cells, RSL3 2 micromolar, Cell Titer Glo

Compound	EC50 [1, 4] [nM]	EC50 [3] [nM]	also measured
[2H]C([2H])([2H])C1=C(C([2H])([2H])c2ccc(C(F)(F)F)cn2)C(=O)c2ccccc2C1=O [Example 22, 2-(methyl-d3)-3-((5-(trifluoromethyl)pyridin-2-yl)methyl-d2)naphthalene-1,4-dione]	< 50		
CC1=C(Cc2ccc(C(F)(F)F)cn2)C(=O)c2cc(C)ccc2C1=O [Example 42, 2,6-dimethyl-3-((5-(trifluoromethyl)pyridin-2-yl)methyl)naphthalene-1,4-dione]		< 50	EC50 [2]: < 50 nM
CC1=C(Cc2ccc(C(F)(F)F)cn2)C(=O)c2cc(C)c(C)cc2C1=O [Example 43, 2,6,7-trimethyl-3-((5-(trifluoromethyl)pyridin-2-yl)methyl)naphthalene-1,4-dione]	250 to 1000		EC50 [2]: 50 to 250 nM
CC1=C(Cc2ccc(C(F)(F)F)cn2)C(=O)c2ccc(F)cc2C1=O [Example 44, 6-fluoro-3-methyl-2-((5-(trifluoromethyl)pyridin-2-yl)methyl)naphthalene-1,4-dione]		< 50	EC50 [2]: < 50 nM
CC1=C(Cc2ccc(F)cn2)C(=O)c2cc(F)ccc2C1=O [Example 47, 6-fluoro-3-((5-fluoropyridin-2-yl)methyl)-2-methylnaphthalene-1,4-dione]	< 50		EC50 [2]: < 50 nM
CC1=C(Cc2ccc(C(F)(F)F)cn2)C(=O)c2cc(F)cc(F)c2C1=O [Example 49, 5,7-difluoro-3-methyl-2-((5-(trifluoromethyl)pyridin-2-yl)methyl)naphthalene-1,4-dione]	< 50		EC50 [2]: < 50 nM
CC1=C(Cc2ccc(C(F)(F)F)cn2)C(=O)c2c(F)cc(F)cc2C1=O [Example 50, 5,7-difluoro-2-methyl-3-((5-(trifluoromethyl)pyridin-2-yl)methyl)naphthalene-1,4-dione]	< 50		EC50 [2]: < 50 nM
CC1=C(Cc2ccc(C(F)(F)F)cn2)C(=O)c2cc(Cl)cc(Cl)c2C1=O [Example 58, 5,7-dichloro-3-methyl-2-[[5-(trifluoromethyl)-2-pyridyl]methyl]naphthalene-1,4-dione]			EC50 [1]: < 50 nM
CC1=C(Cc2ccc(C(F)(F)F)cn2)C(=O)c2ccc(Cl)cc2C1=O [Example 59, 6-chloro-3-methyl-2-[[5-(trifluoromethyl)-2-pyridyl]methyl]naphthalene-1,4-dione]	< 50		
CC1=C(Cc2ccc(C(F)(F)F)cn2)C(=O)c2cc(F)c(F)cc2C1=O [Example 78, 6,7-difluoro-2-methyl-3-((5-(trifluoromethyl)pyridin-2-yl)methyl)naphthalene-1,4-dione]	< 50		
CC1=C(Cc2ccc(C(F)(F)F)cn2)C(=O)c2ccc(F)c(F)c2C1=O [Example 80, 5,6-difluoro-3-methyl-2-((5-(trifluoromethyl)pyridin-2-yl)methyl)naphthalene-1,4-dione]	< 50		
CCCC1=C(Cc2ccc(C(F)(F)F)c(C#N)n2)C(=O)c2c(F)ccc(F)c2C1=O [Example 85, 6-((5,8-difluoro-1,4-dioxo-3-propyl-1,4-dihydronaphthalen-2-yl)methyl)-3-(trifluoromethyl)picolinonitrile]	< 50		
CC1=C(Cc2ccc(C(F)(F)F)c(C#N)n2)C(=O)c2c(F)c(F)cc(F)c2C1=O [Example 130, 6-((5,7,8-trifluoro-3-methyl-1,4-dioxo-1,4-dihydronaphthalen-2-yl)methyl)-3-(trifluoromethyl)picolinonitrile]	> 1000		
CCC1=C(Cc2ccc(C(C)(F)F)cn2)C(=O)c2ccccc2C1=O [Example 137, 2-((5-(1,1-difluoroethyl)pyridin-2-yl)methyl)-3-ethylnaphthalene-1,4-dione]		< 50	
CCC1=C(Cc2ccc(OC(F)(F)F)cn2)C(=O)c2c(F)ccc(F)c2C1=O [Example 138, 2-ethyl-5,8-difluoro-3-((5-(trifluoromethoxy)pyridin-2-yl)methyl)naphthalene-1,4-dione]		< 50	
CCC1=C(Cc2ccc(C(F)(F)F)c(C)n2)C(=O)c2c(F)ccc(F)c2C1=O [Example 139, 2-ethyl-5,8-difluoro-3-((6-methyl-5-(trifluoromethyl)pyridin-2-yl)methyl)naphthalene-1,4-dione]		< 50	
CCC1=C(Cc2ccc(F)c(C)n2)C(=O)c2c(F)ccc(F)c2C1=O [Example 140, 2-ethyl-5,8-difluoro-3-((5-fluoro-6-methylpyridin-2-yl)methyl)naphthalene-1,4-dione]		< 50	
CCC1=C(Cc2ccc(C(F)(F)C(F)(F)F)cn2)C(=O)c2c(F)ccc(F)c2C1=O [Example 141, 2-ethyl-5,8-difluoro-3-((5-(perfluoroethyl)pyridin-2-yl)methyl)naphthalene-1,4-dione]		< 50	
CCC1=C(Cc2ccc(OC(F)(F)F)cn2)C(=O)c2c(F)cc(F)cc2C1=O [Example 142, 2-ethyl-5,7-difluoro-3-((5-(trifluoromethoxy)pyridin-2-yl)methyl)naphthalene-1,4-dione]		< 50	
COc1cnc(CC2=C(C)C(=O)c3ccccc3C2=O)cc1C(F)(F)F [Example 145, 2-((5-methoxy-4-(trifluoromethyl)pyridin-2-yl)methyl)-3-methylnaphthalene-1,4-dione]		< 50	
CCC1=C(Cc2cc(C)c(F)cn2)C(=O)c2ccccc2C1=O [Example 146, 2-ethyl-3-((5-fluoro-4-methylpyridin-2-yl)methyl)naphthalene-1,4-dione]		< 50	
CCC1=C(Cc2cc(C(F)(F)F)c(OC)cn2)C(=O)c2ccccc2C1=O [Example 147, 2-ethyl-3-((5-methoxy-4-(trifluoromethyl)141yridine-2-yl)methyl)naphthalene-1,4-dione]		< 50	
CCC1=C(Cc2ccc(C(F)(F)C(F)(F)F)cn2)C(=O)c2ccccc2C1=O [Example 148, 2-ethyl-3-((5-(perfluoroethyl)142yridine-2-yl)methyl)naphthalene-1,4-dione]		< 50	
CCC1=C(Cc2cc(C(F)(F)F)c(C)cn2)C(=O)c2ccccc2C1=O [Example 149, 2-ethyl-3-((5-methyl-4-(trifluoromethyl)pyridin-2-yl)methyl)naphthalene-1,4-dione]		< 50	
CC1=C(Cc2ccc(C(F)(F)F)c[n+]2[O-])C(=O)c2ccccc2C1=O [Example 150, 2-((3-methyl-1,4-dioxo-1,4-dihydronaphthalen-2-yl)methyl)-5-(trifluoromethyl)pyridine 1-oxide]		< 50	
CCC1=C(Cc2ccc(C(F)(F)F)c(OC)n2)C(=O)c2c(F)ccc(F)c2C1=O [Example 152, 2-ethyl-5,8-difluoro-3-((6-methoxy-5-(trifluoromethyl)pyridin-2-yl)methyl)naphthalene-1,4-dione]		< 50	
CCC1=C(Cc2ccc(C(F)(F)F)c(O)n2)C(=O)c2c(F)ccc(F)c2C1=O [Example 153, 2-ethyl-5,8-difluoro-3-((6-hydroxy-5-(trifluoromethyl)pyridin-2-yl)methyl)naphthalene-1,4-dione]		< 50	
